Assay results from US20140045823A1 (Neurocrine Biosciences, Inc., priority 2012, published 2014).

Target: T1, human GPR119 (Homo sapiens, UniProt Q8TDV5)
T1 construct: expression vector for human GPR119 cDNA (Acc. No. NP_848566); expressed in transfected cells; Min-6/hGPR119
T1 sequence (Q8TDV5 1-335): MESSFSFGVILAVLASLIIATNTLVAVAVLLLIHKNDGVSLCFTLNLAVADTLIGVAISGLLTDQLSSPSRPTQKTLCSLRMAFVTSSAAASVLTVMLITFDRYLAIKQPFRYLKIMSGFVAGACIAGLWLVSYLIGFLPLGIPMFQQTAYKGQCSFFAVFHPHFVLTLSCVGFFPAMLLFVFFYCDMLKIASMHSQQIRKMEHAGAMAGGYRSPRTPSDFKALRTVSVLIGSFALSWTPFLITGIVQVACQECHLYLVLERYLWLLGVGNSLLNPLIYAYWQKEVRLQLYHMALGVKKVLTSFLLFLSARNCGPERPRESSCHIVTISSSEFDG
Experiment: AlphaScreen cAMP assay in MIN6 cells stably transfected with human GPR119
Type: cell-based
Conditions: Min-6/hGPR119 cells, 45 min at room temperature
Method in brief: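 MIN6 cells stably expressing human GPR119, seeded 10000/well and grown 24 h, were exposed to compound in pH 7.4 buffer with 0.5 mM IBMX, 0.1% BSA and 1% DMSO for 45 min at room temperature. Intracellular cAMP then measured by AlphaScreen.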

SMILES | EC50
COc1ccc(NC(=O)c2ccc(-c3ncc(C(=O)N(C4CC4)C4CCN(C(=O)OC(C)(C)C)CC4)cn3)c(F)c2)c(OC)c1 [Example 143, 4-(Cyclopropyl-{2-[4-(2,4-dimethoxy-phenylcarbamoyl)-2-fluoro-phenyl]-pyrimidine-5-carbonyl}-amino)-piperidine-1-carboxylic acid tert-butyl ester] | 168 nM
CC(C)(C)OC(=O)N1CCC(N(C(=O)c2cnc(-c3ccc(C#N)c(F)c3)o2)C2CC2)CC1 [Example 32, 4-{[2-(4-Cyano-3-fluoro-phenyl)-oxazole-5-carbonyl]-cyclopropyl-amino}-piperidine-1-carboxylic acid tert-butyl ester] | 35 nM
CC(C)(C)OC(=O)N1CCC(N(C(=O)c2ncn(-c3ccc(C#N)cc3)n2)C2CC2)CC1 [Example 50, 4-{[1-(4-Cyano-phenyl)-1H-[1,2,4]triazole-3-carbonyl]-cyclopropyl-amino}-piperidine-1-carboxylic acid tert-butyl ester] | 505 nM
CN(CC1CCOC1)C(=O)c1ccc(-c2ncc(C(=O)N(C3CC3)C3CCN(C(=O)OC(C)(C)C)CC3)cn2)cc1F (centres unmarked) [Example 115, 4-[Cyclopropyl-(2-{3-fluoro-4-[methyl-(tetrahydro-furan-3-ylmethyl)-carbamoyl]-phenyl}-pyrimidine-5-carbonyl)-amino]-piperidine-1-carboxylic acid tert-butyl ester] | 164 nM
CO[C@@H]1CCN(C(=O)c2ccc(-c3ncc(C(=O)N(C4CC4)C4CCN(C(=O)OC(C)(C)C)CC4)cn3)cc2F)C1 [Example 118, 4-(Cyclopropyl-{2-[3-fluoro-4-(3-methoxy-pyrrolidine-1-carbonyl)-phenyl]-pyrimidine-5-carbonyl}-amino)-piperidine-1-carboxylic acid tert-butyl ester] | 129 nM
CN(CC1CCOCC1)C(=O)c1ccc(-c2ncc(C(=O)N(C3CC3)C3CCN(C(=O)OC(C)(C)C)CC3)cn2)cc1 [Example 193, 4-[Cyclopropyl-(2-{4-[methyl-(tetrahydro-pyran-4-ylmethyl)-carbamoyl]-phenyl}-pyrimidine-5-carbonyl)-amino]-piperidine-1-carboxylic acid tert-butyl ester] | 300 nM
CC(C)(C)OC(=O)N1CCC(N(C(=O)c2cc(-c3ccc(C#N)c(F)c3)no2)C2CC2)CC1 [Example 43, 4-{[3-(4-Cyano-3-fluoro-phenyl)-isoxazole-5-carbonyl]-cyclopropyl-amino}-piperidine-1-carboxylic acid tert-butyl ester] | 14 nM
CCNC(=O)c1ccc(-c2ncc(C(=O)N(C3CC3)C3CCN(C(=O)OC(C)(C)C)CC3)cn2)cc1 [Example 86, 4-{Cyclopropyl-[2-(4-ethylcarbamoyl-phenyl)-pyrimidine-5-carbonyl]-amino}-piperidine-1-carboxylic acid tert-butyl ester] | 171 nM
COC[C@H]1CCCN1C(=O)c1ccc(-c2ncc(C(=O)N(C3CC3)C3CCN(C(=O)OC(C)(C)C)CC3)cn2)cc1F [Example 114, 4-(Cyclopropyl-{2-[3-fluoro-4-(2-methoxymethyl-pyrrolidine-1-carbonyl)-phenyl]-pyrimidine-5-carbonyl}-amino)-piperidine-1-carboxylic acid tert-butyl ester] | 378 nM
CC(C)(C)OC(=O)N1CCC(N(C(=O)c2cnc(-c3ccc(C(=O)Nc4ccnnc4)cc3)nc2)C2CC2)CC1 [Example 231, 4-(Cyclopropyl-{2-[4-(pyridazin-4-ylcarbamoyl)-phenyl]-pyrimidine-5-carbonyl}-amino)-piperidine-1-carboxylic acid tert-butyl ester] | 414 nM
CC(C)(C)OC(=O)N1CCC(N(C(=O)c2cnc(-c3ccc(C(=O)N4CCC(C#N)C4)cc3)nc2)C2CC2)CC1 (centres unmarked) [Example 239, 4-({2-[4-(3-Cyano-pyrrolidine-1-carbonyl)-phenyl]-pyrimidine-5-carbonyl}-cyclopropyl-amino)-piperidine-1-carboxylic acid tert-butyl ester] | 424 nM
CC(C)OC(=O)N1CCC(N(C(=O)c2ccc(-c3ccc(S(C)(=O)=O)cc3)nc2)C2CC2)CC1 [Example 2, 4-{Cyclopropyl-[6-(4-methanesulfonyl-phenyl)-pyridine-3-carbonyl]-amino}-piperidine-1-carboxylic acid isopropyl ester] | 213 nM
CC(C)(C)OC(=O)N1CCC(N(C(=O)c2cnc(-c3ccc(CC(=O)NC4CCOCC4)cc3)nc2)C2CC2)CC1 [Example 213, 4-[Cyclopropyl-(2-{4-[(tetrahydro-pyran-4-ylcarbamoyl)-methyl]-phenyl}-pyrimidine-5-carbonyl)-amino]-piperidine-1-carboxylic acid tert-butyl ester] | 521 nM
CC(C)(C)OC(=O)N1CCC(N(C(=O)c2cc(-c3cccc([N+](=O)[O-])c3)[nH]n2)C2CC2)CC1 [Example 64, 4-{Cyclopropyl-[5-(3-nitro-phenyl)-1H-pyrazole-3-carbonyl]-amino}-piperidine-1-carboxylic acid tert-butyl ester] | 934 nM
CC(C)(O)CNC(=O)c1ccc(-c2ncc(C(=O)N(C3CC3)C3CCN(C(=O)OC(C)(C)C)CC3)cn2)cc1F [Example 154, 4-(Cyclopropyl-{2-[3-fluoro-4-(2-hydroxy-2-methyl-propylcarbamoyl)-phenyl]-pyrimidine-5-carbonyl}-amino)-piperidine-1-carboxylic acid tert-butyl ester] | 508 nM
CC(C)(C)OC(=O)N1CCC(N(C(=O)c2cc(-c3ccc(C#N)cc3F)on2)C2CC2)CC1 [Example 39, 4-{[5-(4-Cyano-2-fluoro-phenyl)-isoxazole-3-carbonyl]-cyclopropyl-amino}-piperidine-1-carboxylic acid tert-butyl ester] | 3 nM
CC(C)(C)OC(=O)N1CCC(N(C(=O)c2cnc(-c3ccc(N4CCOCC4)cc3)nc2)C2CC2)CC1 [Example 84, 4-{Cyclopropyl-[2-(4-morpholin-4-yl-phenyl)-pyrimidine-5-carbonyl]-amino}-piperidine-1-carboxylic acid tert-butyl ester] | 140 nM
CC(C)(C)OC(=O)N1CCC(N(C(=O)c2cnc(-c3ccc(C(=O)NCCOC(F)(F)F)cc3)nc2)C2CC2)CC1 [Example 227, 4-(Cyclopropyl-{2-[4-(2-trifluoromethoxy-ethylcarbamoyl)-phenyl]-pyrimidine-5-carbonyl]-amino)-piperidine-1-carboxylic acid tert-butyl ester] | 161 nM
COCCNC(=O)c1ccc(-c2ncc(C(=O)N(C3CC3)C3CCN(C(=O)OC(C)(C)C)CC3)cn2)cc1F [Example 167, 4-(Cyclopropyl-{2-[3-fluoro-4-(2-methoxy-ethylcarbamoyl)-phenyl]-pyrimidine-5-carbonyl}-amino)-piperidine-1-carboxylic acid tert-butyl ester] | 146 nM
COc1ccc(NC(=O)c2ccc(-c3ncc(C(=O)N(C4CC4)C4CCN(C(=O)OC(C)(C)C)CC4)cn3)cc2F)c(OC)c1 [Example 120, 4-(Cyclopropyl-{2-[4-(2,4-dimethoxy-phenylcarbamoyl)-3-fluoro-phenyl]-pyrimidine-5-carbonyl}-amino)-piperidine-1-carboxylic acid tert-butyl ester] | 212 nM
CC(C)(C)OC(=O)N1CCC(N(C(=O)c2cnc(-c3ccc(CC(=O)Nc4ccccc4)cc3)nc2)C2CC2)CC1 [Example 180, 4-{Cyclopropyl-[2-(4-phenylcarbamoylmethyl-phenyl)-pyrimidine-5-carbonyl]-amino}-piperidine-1-carboxylic acid tert-butyl ester] | 289 nM
CC(C)(C)OC(=O)N1CCC(N(C(=O)c2cn(-c3ccc(C#N)cc3F)cn2)C2CC2)CC1 [Example 16, 4-{[1-(4-Cyano-2-fluoro-phenyl)-1H-imidazole-4-carbonyl]-cyclopropyl-amino}-piperidine-1-carboxylic acid tert-butyl ester] | 66 nM
CC(C)(C)OC(=O)N1CCC(N(C(=O)c2cnc(-c3cncnc3)nc2)C2CC2)CC1 [Example 71, 4-[([2,5′]Bipyrimidinyl-5-carbonyl)-cyclopropyl-amino]-piperidine-1-carboxylic acid tert-butyl ester] | 90 nM
Cc1nc(CNC(=O)c2ccc(-c3ncc(C(=O)N(C4CC4)C4CCN(C(=O)OC(C)(C)C)CC4)cn3)cc2)cs1 [Example 201, 4-[Cyclopropyl-(2-{4-[(2-methyl-thiazol-4-ylmethyl)-carbamoyl]-phenyl}-pyrimidine-5-carbonyl)-amino]-piperidine-1-carboxylic acid tert-butyl ester] | 180 nM
CC(C)(C)OC(=O)N1CCC(N(C(=O)c2cnc(-c3ccc(C(=O)NCc4cccnn4)c(F)c3)nc2)C2CC2)CC1 [Example 232, 4-[Cyclopropyl-(2-{3-fluoro-4-[(pyridazin-3-ylmethyl)-carbamoyl]-phenyl}-pyrimidine-5-carbonyl)-amino]-piperidine-1-carboxylic acid tert-butyl ester] | 422 nM
COC1CN(C(=O)Cc2ccc(-c3ncc(C(=O)N(C4CC4)C4CCN(C(=O)OC(C)(C)C)CC4)cn3)cc2)C1 [Example 216, 4-[Cyclopropyl-(2-{4-[2-(3-methoxy-azetidin-1-yl)-2-oxo-ethyl]-phenyl}-pyrimidine-5-carbonyl)-amino]-piperidine-1-carboxylic acid tert-butyl ester] | 424 nM
